Laboratory results as given in US20250066348A1, “SMALL MOLECULE INHIBITORS OF UBIQUITIN SPECIFIC PROTEASE 1 (USP1) AND USES THEREOF” (INSILICO MEDICINE IP LIMITED, priority 2021, published 2025).

Assays:
[1] = target: T1, Human recombinant USP1/UAF1 (Homo sapiens, UniProt O94782); assay: Enzymatic assay, USP1/UAF1 with Ubiquitin Rhodamine 110; assay type: biochemical; settings: 2 nM USP1/UAF1, 500 nM Ubiquitin Rhodamine 110, HEPES buffer pH 8.0, 15 minutes preincubation at RT
T1 construct: purchased R&D E-568-050; host or cells: baculovirus infected Sf21 cells
Method: Human recombinant USP1/UAF1 expressed in baculovirus infected Sf21 cells were used (R&D, E-568-050). Test compound and/or vehicle was incubated with 2 nM of USP1/UAF1 in modified HEPES buffer pH 8.0 for 15 minutes at RT. The reaction was initiated by addition of 500 nM of Ubiquitin Rhodamine 110 (R&D, U-555-050) for kinetic reading. Slope change of fluorescence intensity was read spectrofluorimetrically at 485 nm/535 nm. Dose response of test compounds or reference compound ML-323 was analyzed by nonlinear regression of GraphPad prism software.

MDA-MB-436 cells = assay: MDA-MB-436 breast cancer cell proliferation assay (CellTiter-Glo); assay type: cell-based; settings: Homo sapiens, 168 h, 7 days
Method: MDA-MB-436 cells were grown in Leibovitz's L-15 medium with 10 μg/ml insulin, 16 μg/ml glutathione, 10% FBS. Cells were passaged at subconfluence after trypsinization and maintained in incubators at 37° C. in a humidified atmosphere with 5% CO2.
Cell proliferation was determined using CellTiter-Glo® Luminescent Cell Viability Assay (Promega, #G7573). MDA-MB-436 cells were seeded in 384-well plates and allowed to attach for 24 h. Compounds were added into 384-well plate by ECHO, and incubated at 37 C° in a humidified atmosphere with 5% CO2. After 7 days, CellTiter-Glo was added into 384 well plates, contents were mixed on an orbital shaker at […] for 2 min before centrifuging the plate for 2 min at 1000 rpm. After incubation at RT for 30 min, luminescence was read on envision.

T1 sequence (O94782 whole entry): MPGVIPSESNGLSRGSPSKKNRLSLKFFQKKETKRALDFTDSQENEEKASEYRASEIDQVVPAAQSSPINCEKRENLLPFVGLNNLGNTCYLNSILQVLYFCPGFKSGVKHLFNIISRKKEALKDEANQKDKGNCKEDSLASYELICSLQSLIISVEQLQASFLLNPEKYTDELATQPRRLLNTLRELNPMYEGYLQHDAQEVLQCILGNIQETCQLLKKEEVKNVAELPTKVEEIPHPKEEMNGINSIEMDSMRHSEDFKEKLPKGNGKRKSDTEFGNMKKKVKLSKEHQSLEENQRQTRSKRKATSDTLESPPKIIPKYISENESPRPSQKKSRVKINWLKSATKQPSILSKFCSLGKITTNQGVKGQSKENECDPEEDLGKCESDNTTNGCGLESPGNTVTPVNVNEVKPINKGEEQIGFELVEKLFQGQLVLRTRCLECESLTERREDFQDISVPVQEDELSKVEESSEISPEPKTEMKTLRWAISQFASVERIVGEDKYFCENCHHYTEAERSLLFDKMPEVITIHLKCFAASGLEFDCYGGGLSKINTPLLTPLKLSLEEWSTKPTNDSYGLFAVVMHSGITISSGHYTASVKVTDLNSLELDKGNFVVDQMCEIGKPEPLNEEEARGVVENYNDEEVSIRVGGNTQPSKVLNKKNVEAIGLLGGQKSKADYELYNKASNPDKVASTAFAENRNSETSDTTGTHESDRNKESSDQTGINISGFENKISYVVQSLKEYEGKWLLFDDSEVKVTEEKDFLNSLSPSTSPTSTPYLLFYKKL
T1 sequence (Q8TAF3 whole entry partner): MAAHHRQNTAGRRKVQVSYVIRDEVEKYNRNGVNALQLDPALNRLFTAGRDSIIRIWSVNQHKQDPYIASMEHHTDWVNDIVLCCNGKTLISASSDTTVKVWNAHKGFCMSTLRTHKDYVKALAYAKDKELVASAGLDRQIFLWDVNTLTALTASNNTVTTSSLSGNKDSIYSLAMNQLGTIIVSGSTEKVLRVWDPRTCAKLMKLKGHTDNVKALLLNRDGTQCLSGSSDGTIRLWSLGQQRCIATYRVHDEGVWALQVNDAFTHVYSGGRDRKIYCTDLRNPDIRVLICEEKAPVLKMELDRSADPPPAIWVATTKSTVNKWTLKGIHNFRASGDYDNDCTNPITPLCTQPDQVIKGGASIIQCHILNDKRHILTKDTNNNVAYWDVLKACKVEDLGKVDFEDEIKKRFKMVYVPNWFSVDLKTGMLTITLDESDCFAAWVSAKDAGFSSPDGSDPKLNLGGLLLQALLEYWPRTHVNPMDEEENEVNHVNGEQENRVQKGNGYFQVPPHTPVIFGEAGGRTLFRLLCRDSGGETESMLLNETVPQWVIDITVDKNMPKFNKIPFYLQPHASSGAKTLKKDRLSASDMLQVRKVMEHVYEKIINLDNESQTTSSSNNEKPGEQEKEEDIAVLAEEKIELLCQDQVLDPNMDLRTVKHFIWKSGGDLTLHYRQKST

Row | Compound | IC50 [1] | IC50 (MDA-MB-436 cells)
1 | COc1ncnc(C2CC2)c1-c1cc2c(cn1)cnn2Cc1ccc(-n2nc(C(F)(F)F)cc2C)cc1 [Example 1, 6-(4-cyclopropyl-6-methoxypyrimidin-5-yl)-1-(4-(5-methyl-3-(trifluoromethyl)-1H-pyrazol-1-yl)benzyl)-1H-pyrazolo[4,3-c]pyridine] | < 50 nM | 50 to 1000 nM
2 | COc1ncnc(C2CC2)c1-c1ncc2cnn(CC34C5C6C3C3C4C5C63c3nc(C(F)(F)F)cn3C)c2n1 (stereo not drawn) [Example 10, 6-(4-cyclopropyl-6-methoxypyrimidin-5-yl)-1-((4-(1-methyl-4-(trifluoromethyl)-1H-imidazol-2-yl)cuban-1-yl)methyl)-1H-pyrazolo[3,4-d]pyrimidine] | < 50 nM | < 50 nM
3 | COc1ncnc(C2CC2)c1-c1ncc2[nH]c(=S)n(Cc3ccc(-n4nc(C(F)(F)F)cc4C)cc3)c2n1 [Example 9, 2-(4-cyclopropyl-6-methoxypyrimidin-5-yl)-9-(4-(5-methyl-3-(trifluoromethyl)-1H-pyrazol-1-yl)benzyl)-7,9-dihydro-8H-purine-8-thione] | 50 to 1000 nM | 50 to 1000 nM
4 | COc1ncnc(C2CC2)c1-c1cn2c(Cc3ccc(-n4nc(C(F)(F)F)cc4C)cc3)ncc2cn1 [Example 2, 6-(4-cyclopropyl-6-methoxypyrimidin-5-yl)-3-(4-(5-methyl-3-(trifluoromethyl)-1H-pyrazol-1-yl)benzyl) imidazo[1,5-a]pyrazine] | 50 to 1000 nM | 50 to 1000 nM
5 | COc1ncnc(C2CC2)c1-c1ncc2c(=O)n(C)n(Cc3ccc(-n4nc(C(F)(F)F)cc4C)cc3)c2n1 [Example 7, 6-(4-cyclopropyl-6-methoxypyrimidin-5-yl)-2-methyl-1-(4-(5-methyl-3-(trifluoromethyl)-1H-pyrazol-1-yl)benzyl)-1,2-dihydro-3H-pyrazolo[3,4-d]pyrimidin-3-one] | 50 to 1000 nM | 50 to 1000 nM
6 | COc1ncnc(C2CC2)c1-c1cnc2cnn(Cc3ccc(-n4nc(C(F)(F)F)cc4C)cc3)c2n1 [Example 3, 6-(4-cyclopropyl-6-methoxypyrimidin-5-yl)-1-(4-(5-methyl-3-(trifluoromethyl)-1H-pyrazol-1-yl)benzyl)-1H-pyrazolo[3,4-b]pyrazine] | 1000 to 10000 nM | 1000 to 10000 nM
7 | COc1ncnc(C2CC2)c1-c1ncc2oc(=O)n(Cc3ccc(-n4nc(C(F)(F)F)cc4C)cc3)c2n1 [Example 8, 5-(4-cyclopropyl-6-methoxypyrimidin-5-yl)-3-(4-(5-methyl-3-(trifluoromethyl)-1H-pyrazol-1-yl)benzyl) oxazolo[4,5-d]pyrimidin-2 (3H)-one] | 50 to 1000 nM | 50 to 1000 nM
8 | COc1ncnc(C2CC2)c1-c1cn2c(Cc3ccc(-n4nc(C(F)(F)F)cc4C)cc3)nnc2cn1 [Example 5, 6-(4-cyclopropyl-6-methoxypyrimidin-5-yl)-3-(4-(5-methyl-3-(trifluoromethyl)-1H-pyrazol-1-yl)benzyl)-[1,2,4]triazolo[4,3-a]pyrazine] | 1000 to 10000 nM | > 10000 nM
9 | COc1ncnc(C2CC2)c1-c1cc2c(cn1)cnn2Cc1ccc(-n2nc(C(F)(F)F)cc2C)nc1 [Example 12, 6-(4-cyclopropyl-6-methoxypyrimidin-5-yl)-1-((6-(5-methyl-3-(trifluoromethyl)-1H-pyrazol-1-yl)pyridin-3-yl)methyl)-1H-pyrazolo[4,3-c]pyridine] | 50 to 1000 nM | –
10 | COc1ncnc(C2CC2)c1-c1cc2c(cnn2Cc2ccc(-n3nc(C(F)(F)F)cc3C)cc2)nn1 [Example 4, 6-(4-cyclopropyl-6-methoxypyrimidin-5-yl)-1-(4-(5-methyl-3-(trifluoromethyl)-1H-pyrazol-1-yl)benzyl)-1H-pyrazolo[4,3-c]pyridazine] | 1000 to 10000 nM | –
11 | COc1ncnc(C2CC2)c1-c1ncc2cnn(CC34C5C6C3C3C4C5C63c3nc(C(F)(F)F)cn3C(C)C)c2n1 (stereo not drawn) [Example 11, 6-(4-cyclopropyl-6-methoxypyrimidin-5-yl)-1-((4-(1-isopropyl-4-(trifluoromethyl)-1H-imidazol-2-yl)cuban-1-yl)methyl)-1H-pyrazolo[3,4-d]pyrimidine] | < 50 nM | < 50 nM
12 | COc1ncnc(C2CC2)c1-c1cnc2cnc(Cc3ccc(-n4nc(C(F)(F)F)cc4C)cc3)n2c1 [Example 6, 3-(4-cyclopropyl-6-methoxypyrimidin-5-yl)-6-(4-(5-methyl-3-(trifluoromethyl)-1H-pyrazol-1-yl)benzyl)imidazo[1,5-a]pyrimidine] | > 10000 nM | –
